Laboratory results: US20090137652A1, “METHODS FOR NEUROPROTECTION” (priority 2005, published 2009)
Marks after values point to notes of the source that are not given here.

Legend:
[1] = test system: rats subjected to Li-pilo induced SE; assay: EEG patterns during lithium-pilocarpine SE (Example 1); assay type: in vivo, rat
Description: Male Wistar rats weighing 225-250 g, provided by Janvier Breeding Center (Le Genest-St-lste, France) were housed under controlled standard conditions (light/dark cycle, 7.00 a.m.-7.00 p.m. lights on), with food and water available ad libitum. All animal experimentation was performed in accordance with the rules of the European Communities Council Directive of Nov. 24, 1986 (86/609/EEC), and the French Department of Agriculture (License No 67-97). For electrode implantation, rats were anesthetized by an i.p. injection of 2.5 mg/kg diazepam (DZP, Valium, Roche, France) and […] ketamine chlorhydrate (Imalgene 1000, Rhone Merrieux, France). Four single-contact recording electrodes were placed on the skull, over the parietal cortex, two on each side.
All rats received lithium chloride (3 meq/kg, i.p., Sigma, St Louis, Mo., U.S.A.); about 20 h later, animals were placed into plexiglas boxes, in order to record baseline cortical EEG. Methylscopolamine bromide (1 mg/kg, s.c., Sigma) was administered to limit the peripheral effects of the convulsant. SE was induced by injecting pilocarpine hydrochloride (25 mg/kg, s.c., Sigma) 30 min after methyl-scopolamine. The bilateral EEG cortical activity was recorded during the whole duration of SE and behavioral changes were noted.
The effects of increasing doses of the test compound were studied on 3 groups of rats. The animals of the first group received 10 mg/kg of the test compound, i.p., 1 h after the onset of SE (pilo-TC10) while the animals of groups 2 and 3 received 30 and 60 mg/kg of the test compound (pilo-TC30 and pilo-TC60), respectively.
Another group was injected with 2 mg/kg diazepam (DZP, i.m.) at 1 h after the onset of SE. This is a standard treatment to improve animals survival after SE (pilo-DZP). The control group received saline instead of pilocarpine and the test compound (saline-saline). The pilo-test compound rats surviving SE were then injected about 10 h after the first test compound injection with a second i.p. injection of the same dose of the test compound and were maintained under a twice daily treatment with the test compound for 6 additional days. Pilo-DZP received a second injection of 1 mg/kg DZP on the day of SE at about 10 h after the first one. Thereafter, Pilo-DZP and saline-saline rats received twice daily an equivalent volume of saline.
The effects of the test compound on the EEG and on the latency to occurrence of SRS were investigated by daily video recording of the animals for 10 h per day and the recording of the electrographic activity twice a week for 8 h.

[2] = test system: rats subjected to Li-pilo induced SE; assay: Timm staining, mossy fiber sprouting in hippocampus (Example 1); assay type: in vivo, rat
Description: At 2 months after the onset of spontaneous recurrent seizures, mossy fiber sprouting was examined on rats in the chronic period exposed to the test compound or DZP and in 3 saline-saline rats. Animals were deeply anaesthetized and perfused transcardially with saline followed by 100 ml of 1.15% (w/v) Na2S in 0.1 M phosphate buffer, and 100 ml of 4% (v/v) formaldehyde in 0.1 M phosphate buffer. Brains were removed from skull, post-fixed in 4% formaldehyde during 3-5 h and 40 μm sections were cut on a sliding vibratome and mounted on gelatin-coated slides.
The following day, sections were developed in the dark in a 26° C. solution of 50% (w/v) arabic gum (160 ml), sodium citrate buffer (30 ml), 5.7% (w/v) hydroquinone (80 ml) and 10% (w/v) silver nitrate (2.5 ml) during 40-45 min. The sections were then rinsed with tap water at 40° C. during at least 45 min, rinsed rapidly with distilled water and allowed to dry. They were dehydrated in ethanol and coverslipped.
Mossy fiber sprouting was evaluated according to criteria previously described in dorsal hippocampus (Cavazos et al., 1991, J Neurosci 11:2795-2803), which are follows: O— no granules between the tips and crest of the DG; 1—sparse granules in the supragranular region in a patchy distribution between the tips and crest of DG; 2—more numerous granules in a continuous distribution between the tips and crest of DG; 3—prominent granules in a continuous pattern between tips and crest, with occasional patches of confluent granules between tips and crest; 4—prominent granules that form a confluent dense laminar band between tips and crest and 5—confluent dense laminar band of granules that extends into the inner molecular layer.

[3] = test system: transient cerebral ischemia middle cerebral artery occlusion (MCAO) rat model; assay: Transient cerebral ischemia middle cerebral artery occlusion (MCAO) rat model, infarct volume; assay type: in vivo; conditions: N 12; for Mean Infarct Volume ± S.E.M., Striatum: vehicle 79.4; for Mean Infarct Volume ± S.E.M., Cortex: vehicle 275.5; for Mean Infarct Volume ± S.E.M., Total Volume: vehicle 354.9
Description: The enantiomer of Formula 7 (test compound) was investigated in the transient cerebral ischemia middle cerebral artery occlusion (MCAO) rat model (as described in Nagasawa H. and Kogure K., Stroke, 1989, 20, 1037; and, Zea Longa E., Weinstein P. R., Carlson S, and Cummins R., Stroke, 1989, 20, 84) using male Wistar rats at 10 and 100 mg/kg (i.v.). MK 801 (Dizocilpine maleate; CAS Registry number 77086-22-7, a commercially available neuroprotectant compound) was used as a positive control (3 mg/kg, i.p.).
Rats (n=12) were randomly allocated to one of four experimental groups and were anesthetized. Blood flow from the internal carotid artery, anterior cerebral artery and posterior cerebral artery into the middle cerebral artery was blocked by this procedure. One hour after blockage, animals were treated over a 1 hour period with vehicle (administered i.v. over the one hour period), control (administered as a single i.p. dose at the start of the one hour period) and two doses of the enantiomer of Formula 7 (administered i.v. over the one hour period). Two hours after blockage, reperfusion was performed.
The animals were sacrificed and […] coronal sections of each brain were prepared. One in every forty sections (i.e. every […]) from the front to the occipital cortex was used to quantify the extent of the cerebral lesion. Slides were prepared using sections stained (according to the Nissl procedure) with cresyl violet and were examined under a light microscope.
Regional ischemic surface areas in the coronal sections of individual rats were determined according to the presence of cells with morphological changes. The areas of neuronal injury or infarction were measured and then added. The cortex and striatum volume were calculated for each animal (total ischemic surface area×0.8 mm (thickness)).
The mean volumes (.+−.S.E.M.) for each animal randomly assigned to the four experimental groups were compared using one-way ANOVA (one way ANOVA is a statistical method which compares 3 or more unmatched groups) followed by Dunnett's t-test (both methods incorporated in Statview 512+software, BarinPower, Calabasas, Calif., USA).

[4] = test system: rats subjected to li-pilo SE; assay: Latency to and frequency of spontaneous seizures by video recording, lithium-pilocarpine model (Example 2); assay type: in vivo, rat; conditions: pilo-TC90 (90 mg/kg), Non epileptic subgroup (n = 5), no seizure over 150 days post-SE
[5] = Formula 7 10 mg/kg i.v. over 1 hour
[6] = Formula 7 100 mg/kg i.v. over 1 hour

Structure (SMILES) | EEG activity in the cortex and the hippocampus by 6-7 h of SE ([1]; DZP-treated rats (2 mg/kg i.m.)) | mean Timm score, upper blade of the dentate gyrus ([2]; pilo-DZP, n=9, score scale 0-5) | Mean Infarct Volume ± S.E.M., Striatum [3, 5] | Mean Infarct Volume ± S.E.M., Cortex [3, 5] | Mean Infarct Volume ± S.E.M., Total Volume [3, 5] | Mean Infarct Volume ± S.E.M., Striatum [3, 6] | Mean Infarct Volume ± S.E.M., Cortex [3, 6] | Mean Infarct Volume ± S.E.M., Total Volume [3, 6] | Latency to the first spontaneous seizure [4] | EEG activity in the cortex and the hippocampus by 6-7 h of SE ([1]; TC10-treated rats (10 mg/kg i.p.)) | amplitude of the EEG by 6-7 h of SE, hippocampus ([1]; TC30 rats (30 mg/kg i.p.)) | amplitude of the EEG by 6-7 h of SE, hippocampus and cortex (both structures) ([1]; TC60 treated rats (60 mg/kg i.p.)) | mean Timm score, upper blade of the dentate gyrus ([2]; pilo-TC10, n=7, p=0.032 vs pilo-DZP) | mean Timm score, upper blade of the dentate gyrus ([2]; pilo-TC30, n=10) | mean Timm score, upper blade of the dentate gyrus ([2]; pilo-TC60 subgroup with early SRS occurrence, n=6) | mean Timm score, upper blade of the dentate gyrus ([2]; pilo-TC60 subgroup with late occurrence or absence of SRS, n=5, p=0.016 vs pilo-DZP) | mean Timm score, upper blade of the dentate gyrus ([2]; whole group of pilo-TC60 rats, n=11)
CN1C(=O)CN=C(c2ccccc2)c2cc(Cl)ccc21 [DZP, diazepam, reference compound] | spiking activity was still present | 2.8±0.8 |  |  |  |  |  |  |  |  |  |  |  |  |  |  | 
NC(=O)OC[C@@H](O)c1ccccc1Cl [Formula 7] |  |  | 75.9 ± 2.6 mm^3 | 201.0 ± 23.9 mm^3 | 276.9 ± 25.4 mm^3 | 63.0 ± 5.9^2 mm^3 | 98.8 ± 29.5^1 mm^3 | 161.9 ± 34.3^1 mm^3 | 150** °° days | spiking activity was still present | came back to baseline levels | came back to baseline levels | 1.5±0.6 | 2.6±1.0 | 1.8±0.6 | 1.2±0.6 | 1.5±0.7
